The record followed here is patent US9346761B2, “Arginine methyltransferase inhibitors and uses thereof” (Epizyme, Inc., priority 2013, dated 2016).

Some results are limits rather than exact numbers.

This test concerns the target T1, Full-length human PRMT8 (Homo sapiens, UniProt Q9NR22).
T1 construct: Full-length human PRMT8 (NM_019854.4) isoform 1 transcript clone; made in house
In words: PRMT8 biochemical assay (3H-SAM Flashplate, peptide substrate). The source says: General Materials. S-adenosylmethionine (SAM), S-adenosylhomocysteine (SAH), bicine, Tween20, dimethylsulfoxide (DMSO), bovine skin gelatin (BSG), isopropyl-β-D-thiogalactopyranoside (IPTG), and Tris(2-carboxyethyl)phosphine hydrochloride solution (TCEP) were purchased from Sigma-Aldrich at the highest level of purity possible. ^3H-SAM was purchase from American Radiolabeled Chemicals with a specific activity of 80 Ci/mmol. 384-well streptavidin Flashplates were purchased from PerkinElmer.
Substrates. Peptide representative of human histone H4 residues 31-45 was synthesized with an N-terminal linker-affinity tag motif and a C-terminal amide cap by 21st Century Biochemicals.
Protein Expression. E. coli (BL21(DE3) Gold, Stratagene) made competent by the CaCl2 method were transformed with the PRMT8 construct and ampicillin selection. Protein over-expression was accomplished by growing the PRMT8 expressing E. coli clone and inducing expression with 0.3 mM IPTG at 16° C. The culture was grown for 12 hours, harvested by centrifugation, and stored at −80° C. for purification.
Protein Purification. […] GST-tagged PRMT8 was eluted with 50 mM Tris, 2 mM glutathione, pH 7.8. Pooled fractions were cleaved by thrombin (10 U) and dialysed in buffer A. GST was removed by reloading the cleaved protein sample onto glutathione sepharose column and PRMT8 was collected in the flow-through fractions. PRMT8 was purified further by ceramic hydroxyapatite chromatography. The column was washed with 50 mM phosphate buffer, 100 mM NaCl, 5% glycerol, 5 mM β-mercaptoethanol, pH 7.8 and PRMT8 was eluted by 100 mM phosphate in the same buffer. Protein was concentrated and buffer was exchanged to 50 mM Tris, 300 mM NaCl, 10% glycerol, 5 mM β-mercaptoethanol, pH 7.8 by ultrafiltration.
General Procedure for PRMT8 Enzyme Assays on Peptide Substrates. The assays were all performed in a buffer consisting of 20 mM Bicine (pH=7.6), 1 mM TCEP, 0.005% BSG, and 0.002% Tween 20, prepared on the day of use. […] DMSO (1 ul) was added to Columns 11, 12, 23, 24, rows A-H for the maximum signal control and 1 ul of SAH, a known product and inhibitor of PRMT8, was added to columns 11, 12, 23, 24, rows I-P for the minimum signal control. A cocktail (40 ul) containing the PRMT8 enzyme was added by Multidrop Combi (Thermo-Fisher). The compounds were allowed to incubate with PRMT8 for 30 min at room temperature, then a cocktail (10 ul) containing ^3H-SAM and peptide was added to initiate the reaction (final volume=51 ul). […] The assays were stopped by the addition of non-radiolabeled SAM (10 ul) to a final concentration of 400 uM, which dilutes the ^3H-SAM to a level where its incorporation into the peptide substrate is no longer detectable. 50 ul of the reaction in the 384-well polypropylene plate was then transferred to a 384-well Flashplate and the biotinylated peptides were allowed to bind to the streptavidin surface for at least 1 hour before being washed once with 0.1% Tween20 in a Biotek ELx405 plate washer. The plates were then read in a PerkinElmer TopCount plate reader to measure the quantity of ^3H-labeled peptide bound to the Flashplate surface, measured as disintegrations per minute (dpm) or alternatively, referred to as counts per minute (cpm).
Where dpm=disintegrations per minute, cmpd=signal in assay well, and min and max are the respective minimum and maximum signal controls.
Where top and bottom are the normally allowed to float, but may be fixed at 100 or 0 respectively in a 3-parameter fit. The Hill Coefficient normally allowed to float but may also be fixed at 1 in a 3-parameter fit. Y is the % inhibition and X is the compound concentration.

T1 sequence (Q9NR22 whole entry, canonical isoform): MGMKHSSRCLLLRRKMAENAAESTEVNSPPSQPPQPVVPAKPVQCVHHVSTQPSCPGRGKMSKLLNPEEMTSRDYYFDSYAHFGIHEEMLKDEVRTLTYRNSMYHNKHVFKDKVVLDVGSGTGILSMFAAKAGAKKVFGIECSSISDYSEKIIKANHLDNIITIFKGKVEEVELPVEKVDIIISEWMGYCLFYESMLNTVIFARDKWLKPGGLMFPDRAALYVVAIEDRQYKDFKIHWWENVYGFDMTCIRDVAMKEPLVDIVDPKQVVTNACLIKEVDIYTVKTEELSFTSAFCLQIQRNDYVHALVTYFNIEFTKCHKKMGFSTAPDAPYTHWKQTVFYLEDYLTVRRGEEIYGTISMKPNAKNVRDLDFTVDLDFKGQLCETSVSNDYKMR

For `COCCn1cc(CN(C)CCN)c(-c2ccc(F)cc2)n1` [Compound 5], the half-inhibitory concentration (IC50) (as a rule, the concentration that inhibits the measured activity by half) is 3010 to 10000 nM.

Compound `CCn1ncc(CN(C)CCNC)c1-c1ccc(F)cc1` [Compound 7] registered an IC50 of 3010 to 10000 nM.

For the compound `CCn1cc(CN(C)CCNC)c(-c2ccc(F)cc2)n1` [Compound 8], the IC50 was 3010 to 10000 nM.

The compound `CN(CCN)Cc1c[nH]nc1-c1ccc(Cl)cc1` [Compound 95] had an IC50 of 101 to 1000 nM.

On to `CN(CCN)Cc1c[nH]nc1-c1ccc(OCC(F)(F)F)cc1` [Compound 96], for which the IC50 fell in the range of 101 to 1000 nM.

With `CC(C)Oc1ccc(-c2n[nH]cc2CN(C)CCN)cc1F` [Compound 97], the IC50 is under 100 nM.

`CN(CCN)Cc1c[nH]nc1-c1ccc(C2CCOCC2)cc1` [Compound 98]: the IC50 was in the range of 101 to 1000 nM.

Compound `CN(CCN)Cc1c[nH]nc1-c1ccc(F)cc1F` [Compound 99] registered an IC50 of 1010 to 3000 nM.

Compound `CN(CCN)Cc1n[nH]cc1-c1ccc(C#N)cc1` [Compound 100] had an IC50 of 101 to 1000 nM.

The compound `CC(C)c1ccc(-c2c[nH]nc2CN(C)CCN)cc1` [Compound 101] registered an IC50 of 101 to 1000 nM.

For the compound `CN(CCN)Cc1n[nH]cc1-c1ccc(Cl)cc1` [Compound 102], the IC50 is 101 to 1000 nM.

Turning to `CN(CCN)Cc1n[nH]cc1-c1ccc(C(F)(F)F)cc1` [Compound 103], the half-inhibitory concentration (IC50) fell in the range of 101 to 1000 nM.

Compound `CN(CCN)Cc1n[nH]cc1-c1ccc(C2CC2)cc1` [Compound 104] registered an IC50 of 101 to 1000 nM.

`CN(CCN)Cc1n[nH]cc1-c1ccc(OC(F)(F)F)cc1` [Compound 105] came in with a half-maximal inhibitory concentration (IC50) of 101 to 1000 nM.

Compound `CN(CCN)Cc1c[nH]nc1-c1cc(F)ccc1Cl` [Compound 106] came in with an IC50 of 3010 to 10000 nM.

Compound `COc1ccc(-c2n[nH]cc2CN(C)CCN)c(F)c1` [Compound 107] returned an IC50 of 101 to 1000 nM.

Compound `Cc1ccc(-c2n[nH]cc2CN(C)CCN)c(F)c1` [Compound 108] yielded a half-maximal inhibitory concentration (IC50) of 1010 to 3000 nM.

Regarding `COc1ccccc1-c1n[nH]cc1CN(C)CCN` [Compound 109], the 50% inhibitory concentration (IC50) was 1010 to 3000 nM.

Take `Cc1cc(C#N)ccc1-c1n[nH]cc1CN(C)CCN` [Compound 110]: the IC50 fell in the range of 101 to 1000 nM.

In turn, `CN(CCN)Cc1c[nH]nc1-c1cc(F)cc(F)c1` [Compound 111] yielded a half-inhibitory concentration (IC50) of 101 to 1000 nM.

In turn, `CC(=O)c1cccc(-c2n[nH]cc2CN(C)CCN)c1` [Compound 112] had a half-maximal inhibitory concentration (IC50) of 101 to 1000 nM.

Compound `CN(CCN)Cc1cnn(CC(O)CO)c1-c1ccc(F)cc1` (stereo not shown) [Compound 113] yielded an IC50 of 3010 to 10000 nM.

On to `CN(CCN)Cc1c[nH]nc1-c1ccc(OC2CC2)cc1` [Compound 114], for which the IC50 was under 100 nM.

As to `CC(O)c1ccc(-c2n[nH]cc2CN(C)CCN)cc1` (stereo not shown) [Compound 115], the IC50 was 1010 to 3000 nM.

In turn, `CN(CCN)Cc1c[nH]nc1-c1ccc(C2CC2)cc1` [Compound 116] came in with an IC50 of 101 to 1000 nM.

`CN(CCN)Cc1c[nH]nc1-c1ccc(C(F)(F)F)c(Cl)c1` [Compound 117] displayed an IC50 of under 100 nM.

Compound `CN(CCN)Cc1c[nH]nc1-c1ccc(Cl)c(F)c1` [Compound 118] displayed a half-maximal inhibitory concentration (IC50) of 101 to 1000 nM.

For the compound `CN(CCN)Cc1n[nH]cc1-c1ccc(OC2CC2)cc1` [Compound 119], the IC50 is 101 to 1000 nM.

With `CN(CCN)Cc1c[nH]nc1-c1cc(F)cc(Cl)c1` [Compound 121], the IC50 fell in the range of 101 to 1000 nM.

The compound `CN(CCN)Cc1c[nH]nc1-c1cccc(Cl)c1` [Compound 122] displayed an IC50 of 101 to 1000 nM.

Turning to `CN(CCN)Cc1c[nH]nc1-c1cccc(Cl)c1F` [Compound 123], the IC50 lay in the range of 101 to 1000 nM.

Compound `CN(CCN)Cc1c[nH]nc1-c1ccc(F)c(Cl)c1` [Compound 124] gave a 50% inhibitory concentration (IC50) of 101 to 1000 nM.

`COc1ccc(-c2n[nH]cc2CN(C)CCN)cc1Cl` [Compound 125] yielded a half-maximal inhibitory concentration (IC50) of 101 to 1000 nM.

The compound `Cc1ccc(-c2n[nH]cc2CN(C)CCN)cc1Cl` [Compound 126] gave a half-inhibitory concentration (IC50) of 101 to 1000 nM.

In turn, `COc1cc(Cl)cc(-c2n[nH]cc2CN(C)CCN)c1` [Compound 127] came in with a concentration for half-maximal inhibition (IC50) of 101 to 1000 nM.

`CN(CCN)Cc1cn(CC2CCOCC2)nc1-c1ccc(F)cc1` [Compound 128] yielded an IC50 of over 10000 nM.

As to `Cc1c(F)cccc1-c1n[nH]cc1CN(C)CCN` [Compound 129], the IC50 is 101 to 1000 nM.
